Test results taken from US12409200B2, “Composition for treating hair loss or promoting hair growth comprising milk thistle flower extract as an active ingredient” (BioSpectrum, Inc., priority 2021, dated 2025).

System: human skin
Experiment: Human skin safety test: repeated insult patch test
Assay type: in vivo
Conditions: for Number of subjects showing reaction ±: grade ±
Procedure: In order to confirm that the extract of seed-removed milk thistle flowers according to the present invention is safe for human skin, a skin safety verification test was performed. To this end, a repeated insult patch test was conducted. Nourishing creams containing the seed-removed milk thistle extract of Example 1 in amounts of 0.1%, 0.5% and 1%, respectively, were prepared. Specifically, a water phase containing purified water, triethanolamine and propylene glycol was dissolved by heating to 70° C. and then emulsified by adding a solution obtained by dissolving beeswax, liquid paraffin, an oil component, an emulsifier and a preservative by heating to 70° C. After completion of emulsification, the solution was cooled to 45° C., and the seed-removed milk thistle flower extract was added thereto in amounts of 0.1%, 0.5% and 1% and dispersed therein, followed by cooling to 30° C. As the content of the extract of seed-removed milk thistle flowers was increased from 0.1% to 0.5% and 1%, the content of liquid paraffin was decreased from 9.91% to 9.51% and 9.01%, respectively, thereby preparing nourishing creams. Using the nourishing creams prepared as described above, a repeated insult patch test was conducted on the upper arm areas of 30 healthy adults every other day for a total of 9 times for 24 hours per time to determine whether the extract of seed-removed milk thistle flowers irritated the skin. The patch test was performed using a Finn chamber (Epitest Ltd., Finland). 15 μl of each of the external skin preparations was dropped into the chamber, and then the patch test was performed. Average degree of reaction=[[(reaction index×degree of reaction)/(total number of subjects×highest score (4)]×100]÷number of tests (9) [Equation 2] In the degree of reaction, ± represents a score of 1 point, […], and ++ represents a score of 4. When the average degree of reaction is less than 3, the corresponding composition is determined to be safe.

Question: Which results are given for `CC(C)=CCC/C(C)=C/CC/C(C)=C/CC/C=C(\C)CC/C=C(\C)CCC=C(C)C` [Control (squalene), squalene]?
Answer: Average degree of reaction (30 healthy adults, upper arm, 9 patch tests of 24 hours, Equation 2, less than 3 = safe): 0.18; Number of subjects showing reaction ± (Week 1, 1st test): 1; Number of subjects showing reaction ± (Week 1, 2nd test): 1
